Laboratory results taken from PubChem BioAssay (NCI).
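How tested: cells in 96-well plates exposed to compound for 48 hours at five concentrations. The concentration for full growth arrest is given as TGI.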

Key:
Test in all cases: NCI tumour cell line growth inhibition, 48 h
EKVX NSCLC = system: EKVX NSCLC
SF-295 CNS = system: SF-295 CNS
U251 CNS = system: U251 CNS
SK-MEL-28 melanoma = system: SK-MEL-28 melanoma
DLD-1 colon = system: DLD-1 colon
SK-MEL-2 melanoma = system: SK-MEL-2 melanoma
CCRF-CEM leukemia = system: CCRF-CEM leukemia
M14 melanoma = system: M14 melanoma
SR leukemia = system: SR leukemia
ACHN renal = system: ACHN renal
RXF-631 renal = system: RXF-631 renal
SK-OV-3 ovarian = system: SK-OV-3 ovarian
MOLT-4 leukemia = system: MOLT-4 leukemia
OVCAR-4 ovarian = system: OVCAR-4 ovarian
NCI-H23 lung = system: NCI-H23 lung
NCI-H460 lung = system: NCI-H460 lung
RPMI-8226 leukemia = system: RPMI-8226 leukemia
UACC-62 melanoma = system: UACC-62 melanoma
K-562 leukemia = system: K-562 leukemia
SK-MEL-5 melanoma = system: SK-MEL-5 melanoma
A549 NSCLC = system: A549 NSCLC
786-0 renal = system: 786-0 renal
M19-MEL melanoma = system: M19-MEL melanoma
KM12 colon = system: KM12 colon
HL-60(TB) leukemia = system: HL-60(TB) leukemia
HT29 colon = system: HT29 colon
KM20L2 colon = system: KM20L2 colon
DMS 273 small cell lung = system: DMS 273 small cell lung
TK-10 renal = system: TK-10 renal
COLO 205 colon = system: COLO 205 colon
UO-31 renal = system: UO-31 renal
HCT-116 colon = system: HCT-116 colon
SF-268 CNS = system: SF-268 CNS
LXFL 529 NSCLC = system: LXFL 529 NSCLC
SNB-19 CNS = system: SNB-19 CNS
HCT-15 colon = system: HCT-15 colon
HOP-62 NSCLC = system: HOP-62 NSCLC
SNB-75 CNS = system: SNB-75 CNS
HOP-18 NSCLC = system: HOP-18 NSCLC
MALME-3M melanoma = system: MALME-3M melanoma
IGROV1 ovarian = system: IGROV1 ovarian
OVCAR-8 ovarian = system: OVCAR-8 ovarian
CAKI-1 renal = system: CAKI-1 renal
HOP-92 NSCLC = system: HOP-92 NSCLC
SNB-78 CNS = system: SNB-78 CNS
SN12C renal = system: SN12C renal
SF-539 CNS = system: SF-539 CNS
HCC-2998 colon = system: HCC-2998 colon
NCI-H522 lung = system: NCI-H522 lung
A498 renal = system: A498 renal
RXF 393 renal = system: RXF 393 renal
OVCAR-5 ovarian = system: OVCAR-5 ovarian
UACC-257 melanoma = system: UACC-257 melanoma
XF 498 CNS = system: XF 498 CNS
DMS 114 small cell lung = system: DMS 114 small cell lung
SW-620 colon = system: SW-620 colon
NCI-H226 lung = system: NCI-H226 lung
OVCAR-3 ovarian = system: OVCAR-3 ovarian
LOX IMVI melanoma = system: LOX IMVI melanoma

Work on [O-][n+]1c(-c2ccccc2)oc2ccccc21 yielded a TGI (EKVX NSCLC) of 63 µM, a TGI (SF-295 CNS) of 27.6 µM and a TGI (U251 CNS) of over 85.8 µM. It also gave a TGI (SK-MEL-28 melanoma) of 36.6 µM, a TGI (DLD-1 colon) of over 59.5 µM and a TGI (SK-MEL-2 melanoma) of 40.4 µM. It also gave a TGI (CCRF-CEM leukemia) of over 100 µM, a TGI (M14 melanoma) of 24.8 µM and a TGI (SR leukemia) of over 100 µM. For the same molecule, the TGI (ACHN renal) was 39.4 µM, the TGI (RXF-631 renal) was over 100 µM and the TGI (SK-OV-3 ovarian) was over 100 µM. It also gave a TGI (MOLT-4 leukemia) of over 100 µM, a TGI (OVCAR-4 ovarian) of over 68 µM and a TGI (NCI-H23 lung) of 38.7 µM. For the same molecule, the TGI (NCI-H460 lung) was 20.2 µM, the TGI (RPMI-8226 leukemia) was over 69.2 µM and the TGI (UACC-62 melanoma) was 23.1 µM. For the same molecule, the TGI (K-562 leukemia) was over 100 µM, the TGI (SK-MEL-5 melanoma) was 6.81 µM and the TGI (A549 NSCLC) was 17.9 µM. For the same molecule, the TGI (786-0 renal) was 62.4 µM, the TGI (M19-MEL melanoma) was 3.59 µM and the TGI (KM12 colon) was over 100 µM. It also gave a TGI (HL-60(TB) leukemia) of 79.9 µM, a TGI (HT29 colon) of 59.1 µM and a TGI (KM20L2 colon) of 43.1 µM. For the same molecule, the TGI (DMS 273 small cell lung) was 28 µM, the TGI (TK-10 renal) was 47.7 µM and the TGI (COLO 205 colon) was 33.6 µM. It also gave a TGI (UO-31 renal) of 40.3 µM, a TGI (HCT-116 colon) of 41.9 µM and a TGI (SF-268 CNS) of over 100 µM. The TGI (LXFL 529 NSCLC) was over 94.4 µM, the TGI (SNB-19 CNS) was over 65.1 µM and the TGI (HCT-15 colon) was 24.3 µM. It also gave a TGI (HOP-62 NSCLC) of 35.2 µM, a TGI (SNB-75 CNS) of 32.7 µM and a TGI (HOP-18 NSCLC) of 20.1 µM. The TGI (MALME-3M melanoma) was 28.1 µM, the TGI (IGROV1 ovarian) was over 100 µM and the TGI (OVCAR-8 ovarian) was over 100 µM. It also gave a TGI (CAKI-1 renal) of over 55.7 µM, a TGI (HOP-92 NSCLC) of over 100 µM and a TGI (SNB-78 CNS) of 97.1 µM. For the same molecule, the TGI (SN12C renal) was 29 µM, the TGI (SF-539 CNS) was 31.5 µM and the TGI (HCC-2998 colon) was 37.8 µM. The TGI (NCI-H522 lung) was 17.5 µM, the TGI (A498 renal) was 34.8 µM and the TGI (RXF 393 renal) was 55.6 µM. For the same molecule, the TGI (OVCAR-5 ovarian) was 67.1 µM, the TGI (UACC-257 melanoma) was 22.6 µM and the TGI (XF 498 CNS) was over 100 µM. The TGI (DMS 114 small cell lung) was 16.4 µM, the TGI (SW-620 colon) was 39.1 µM and the TGI (NCI-H226 lung) was over 100 µM. The TGI (OVCAR-3 ovarian) was 65.9 µM and the TGI (LOX IMVI melanoma) was 15.7 µM.

Cc1ccc(N=Nc2c(C)nn(-c3ccccc3)c2C)c(Br)c1 gave a TGI (EKVX NSCLC) of over 100 µM, a TGI (SF-295 CNS) of over 100 µM and a TGI (U251 CNS) of over 100 µM. It also gave a TGI (SK-MEL-28 melanoma) of over 100 µM, a TGI (DLD-1 colon) of over 100 µM and a TGI (SK-MEL-2 melanoma) of over 100 µM. The TGI (CCRF-CEM leukemia) was over 100 µM, the TGI (M14 melanoma) was over 100 µM and the TGI (ACHN renal) was over 100 µM. It also gave a TGI (RXF-631 renal) of over 100 µM, a TGI (SK-OV-3 ovarian) of over 100 µM and a TGI (MOLT-4 leukemia) of over 100 µM. The TGI (OVCAR-4 ovarian) was over 100 µM, the TGI (NCI-H23 lung) was over 100 µM and the TGI (NCI-H460 lung) was over 100 µM. For the same molecule, the TGI (RPMI-8226 leukemia) was over 100 µM, the TGI (UACC-62 melanoma) was over 100 µM and the TGI (K-562 leukemia) was over 100 µM. It also gave a TGI (SK-MEL-5 melanoma) of over 100 µM, a TGI (A549 NSCLC) of over 100 µM and a TGI (786-0 renal) of over 100 µM. The TGI (M19-MEL melanoma) was over 100 µM, the TGI (KM12 colon) was over 100 µM and the TGI (HL-60(TB) leukemia) was over 100 µM. It also gave a TGI (HT29 colon) of over 100 µM, a TGI (KM20L2 colon) of over 100 µM and a TGI (DMS 273 small cell lung) of over 100 µM. For the same molecule, the TGI (TK-10 renal) was over 100 µM, the TGI (COLO 205 colon) was over 100 µM and the TGI (HCT-116 colon) was over 100 µM. The TGI (SF-268 CNS) was over 100 µM, the TGI (LXFL 529 NSCLC) was over 100 µM and the TGI (SNB-19 CNS) was over 100 µM. The TGI (HCT-15 colon) was over 100 µM, the TGI (HOP-62 NSCLC) was over 100 µM and the TGI (SNB-75 CNS) was over 100 µM. It also gave a TGI (HOP-18 NSCLC) of over 100 µM, a TGI (MALME-3M melanoma) of over 100 µM and a TGI (IGROV1 ovarian) of over 100 µM. For the same molecule, the TGI (OVCAR-8 ovarian) was over 100 µM, the TGI (CAKI-1 renal) was over 100 µM and the TGI (HOP-92 NSCLC) was over 100 µM. It also gave a TGI (SNB-78 CNS) of over 100 µM, a TGI (SN12C renal) of over 100 µM and a TGI (SF-539 CNS) of over 100 µM. For the same molecule, the TGI (HCC-2998 colon) was over 100 µM, the TGI (A498 renal) was over 100 µM and the TGI (RXF 393 renal) was over 100 µM. For the same molecule, the TGI (OVCAR-5 ovarian) was over 100 µM, the TGI (UACC-257 melanoma) was over 100 µM and the TGI (XF 498 CNS) was over 100 µM. The TGI (DMS 114 small cell lung) was over 100 µM, the TGI (SW-620 colon) was over 100 µM and the TGI (NCI-H226 lung) was over 100 µM. The TGI (OVCAR-3 ovarian) was over 100 µM and the TGI (LOX IMVI melanoma) was over 100 µM.

Work on CCOC(=O)[C@]12C3C=CC(C3)C1C(=O)C1OC12 (stereo not given in full) yielded a TGI (EKVX NSCLC) of over 100 µM, a TGI (SF-295 CNS) of over 100 µM and a TGI (U251 CNS) of over 100 µM. For the same molecule, the TGI (SK-MEL-28 melanoma) was over 100 µM, the TGI (DLD-1 colon) was over 100 µM and the TGI (SK-MEL-2 melanoma) was over 100 µM. The TGI (CCRF-CEM leukemia) was over 100 µM, the TGI (ACHN renal) was over 100 µM and the TGI (RXF-631 renal) was over 100 µM. For the same molecule, the TGI (SK-OV-3 ovarian) was over 100 µM, the TGI (MOLT-4 leukemia) was over 100 µM and the TGI (OVCAR-4 ovarian) was over 100 µM. For the same molecule, the TGI (NCI-H23 lung) was over 100 µM, the TGI (NCI-H460 lung) was over 100 µM and the TGI (RPMI-8226 leukemia) was over 100 µM. For the same molecule, the TGI (UACC-62 melanoma) was over 100 µM, the TGI (K-562 leukemia) was over 100 µM and the TGI (SK-MEL-5 melanoma) was over 100 µM. It also gave a TGI (A549 NSCLC) of over 100 µM, a TGI (786-0 renal) of over 100 µM and a TGI (M19-MEL melanoma) of over 100 µM. The TGI (KM12 colon) was over 100 µM, the TGI (HL-60(TB) leukemia) was over 100 µM and the TGI (HT29 colon) was over 100 µM. For the same molecule, the TGI (DMS 273 small cell lung) was over 100 µM, the TGI (TK-10 renal) was over 100 µM and the TGI (COLO 205 colon) was over 100 µM. It also gave a TGI (UO-31 renal) of over 100 µM, a TGI (HCT-116 colon) of over 100 µM and a TGI (SF-268 CNS) of over 100 µM. For the same molecule, the TGI (LXFL 529 NSCLC) was over 100 µM, the TGI (SNB-19 CNS) was over 100 µM and the TGI (HCT-15 colon) was over 100 µM. The TGI (HOP-62 NSCLC) was over 100 µM, the TGI (SNB-75 CNS) was over 100 µM and the TGI (HOP-18 NSCLC) was over 100 µM. For the same molecule, the TGI (MALME-3M melanoma) was over 100 µM, the TGI (IGROV1 ovarian) was over 100 µM and the TGI (OVCAR-8 ovarian) was over 100 µM. The TGI (CAKI-1 renal) was over 100 µM, the TGI (HOP-92 NSCLC) was over 100 µM and the TGI (SNB-78 CNS) was over 100 µM. For the same molecule, the TGI (SN12C renal) was over 100 µM, the TGI (SF-539 CNS) was over 100 µM and the TGI (HCC-2998 colon) was over 100 µM. The TGI (NCI-H522 lung) was over 100 µM, the TGI (A498 renal) was over 100 µM and the TGI (OVCAR-5 ovarian) was over 100 µM. For the same molecule, the TGI (UACC-257 melanoma) was over 100 µM, the TGI (XF 498 CNS) was over 100 µM and the TGI (DMS 114 small cell lung) was over 100 µM. It also gave a TGI (SW-620 colon) of over 100 µM, a TGI (NCI-H226 lung) of over 100 µM and a TGI (OVCAR-3 ovarian) of over 100 µM. It also gave a TGI (LOX IMVI melanoma) of over 100 µM.
